Source: patent US20250101041A1, “POSITIVE ALLOSTERIC MODULATORS OF THE MUSCARINIC ACETYLCHOLINE RECEPTOR M4” (Vanderbilt University, priority 2022, published 2025)

Molecular target: T1, human mAChR M4 (Homo sapiens, UniProt P08173)
T1 construct: expressed in transfected cells; host or cells: CHO-K1 (American Type Culture Collection), stably expressing hM4 and Gqi5
T1 sequence (P08173 1-479): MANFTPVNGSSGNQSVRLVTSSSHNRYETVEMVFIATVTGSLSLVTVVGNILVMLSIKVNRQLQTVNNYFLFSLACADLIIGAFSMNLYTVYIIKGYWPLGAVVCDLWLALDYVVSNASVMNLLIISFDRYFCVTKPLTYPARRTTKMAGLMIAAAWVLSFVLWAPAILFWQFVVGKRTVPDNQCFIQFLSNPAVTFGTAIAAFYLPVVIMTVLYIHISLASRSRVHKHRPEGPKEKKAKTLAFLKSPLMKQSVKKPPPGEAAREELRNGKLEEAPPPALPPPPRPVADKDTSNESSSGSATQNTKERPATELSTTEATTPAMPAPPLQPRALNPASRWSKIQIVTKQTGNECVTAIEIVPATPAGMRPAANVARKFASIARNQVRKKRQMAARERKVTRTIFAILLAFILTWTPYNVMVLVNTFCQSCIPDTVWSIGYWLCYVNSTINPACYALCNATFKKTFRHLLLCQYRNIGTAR
Assay: mAChR M4 cell-based functional assay: calcium mobilization (Fluo-4, FDSS), potentiation of EC20 acetylcholine response in hM4-Gqi5 CHO-K1 cells
Conditions: human M4; for Emax at 30 µM: CHO-K1, % ACh maximum at 30 μM; for EC50: potentiation of EC20 acetylcholine response, calcium mobilization
Procedure, shortened: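 Readout is the fluorescence-ratio rise at 1 Hz on FDSS, with PAM activity taken as concentration-dependent enhancement of the EC20 acetylcholine response, fitted four-parameter for EC50/Emax. hM4-Gqi5 CHO-K1 cells carried Fluo-4 AM dye; test compounds (11 points, 1:3) preceded EC20 acetylcholine additions at 144 s and 230 s.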

| SMILES | Emax at 30 µM [%] | EC50 [µM] |
| --- | --- | --- |
| Cc1c(N2CCc3ncc(N4CC(C)(C)CC4=O)cc3C2)nn2c(=O)ccnc2c1C [Compound 2-145, 7-(3-(4,4-dimethyl-2-oxopyrrolidin-1-yl)-7,8-dihydro-1,6-naphthyridin-6(5H)-yl)-8,9-dimethyl-4H-pyrimido[1,2-b]pyridazin-4-one] | 68 | 1.75 |
| Cc1c(N2CCc3ncc(N4CCCS4(=O)=O)cc3C2)nn2c(=O)ccnc2c1C [Compound 2-146, 7-(3-(1,1-dioxidoisothiazolidin-2-yl)-7,8-dihydro-1,6-naphthyridin-6(5H)-yl)-8,9-dimethyl-4H-pyrimido[1,2-b]pyridazin-4-one] | 78 | 1.48 |
| Cc1c(N2CCc3ncc(N=S4(=O)CCCC4)cc3C2)nn2c(=O)ccnc2c1C [Compound 2-147, 8,9-dimethyl-7-(3-((1-oxidotetrahydro-126-thiophen-1-ylidene)amino)-7,8-dihydro-1,6-naphthyridin-6(5H)-yl)-4H-pyrimido[1,2-b]pyridazin-4-one] | 100 | 1.24 |
| Cc1c(N2CCc3ncc(N4CCC(C)(C)C4=O)cc3C2)nn2c(=O)ccnc2c1C [Compound 2-148, 7-(3-(3,3-dimethyl-2-oxopyrrolidin-1-yl)-7,8-dihydro-1,6-naphthyridin-6(5H)-yl)-8,9-dimethyl-4H-pyrimido[1,2-b]pyridazin-4-one] | 86 | 1.03 |
| Cc1c(N2CCc3ncc(N4C(=O)Cc5ncccc54)cc3C2)nn2c(=O)ccnc2c1C [Compound 2-149, 8,9-dimethyl-7-(3-(2-oxo-2,3-dihydro-1H-pyrrolo[3,2-b]pyridin-1-yl)-7,8-dihydro-1,6-naphthyridin-6(5H)-yl)-4H-pyrimido[1,2-b]pyridazin-4-one] | 50 | 1.05 |
| Cc1c(N2CCc3ncc(N4CC(C)(C)OC4=O)cc3C2)nn2c(=O)ccnc2c1C [Compound 2-150, 3-(6-(8,9-dimethyl-4-oxo-4H-pyrimido[1,2-b]pyridazin-7-yl)-5,6,7,8-tetrahydro-1,6-naphthyridin-3-yl)-5,5-dimethyloxazolidin-2-one] | 63 | 4.38 |
| Cc1cc2nccc(=O)n2nc1N1CCc2ncc(N3CC4(COC4)C3)cc2C1 [Compound 2-151, 7-(3-(2-oxa-6-azaspiro[3.3]heptan-6-yl)-7,8-dihydro-1,6-naphthyridin-6(5H)-yl)-8-methyl-4H-pyrimido[1,2-b]pyridazin-4-one] | 56 |  |
| Cc1cc2nccc(=O)n2nc1N1CCc2ncc(Nc3cc(C(F)(F)F)ncc3F)cc2C1 [Compound 2-152, 7-(3-((5-fluoro-2-(trifluoromethyl)pyridin-4-yl)amino)-7,8-dihydro-1,6-naphthyridin-6(5H)-yl)-8-methyl-4H-pyrimido[1,2-b]pyridazin-4-one] | 88 | 1.32 |
| Cc1cc2nccc(=O)n2nc1N1CCc2ncc(Nc3ccnc(C)c3F)cc2C1 [Compound 2-153, 7-(3-((3-fluoro-2-methylpyridin-4-yl)amino)-7,8-dihydro-1,6-naphthyridin-6(5H)-yl)-8-methyl-4H-pyrimido[1,2-b]pyridazin-4-one] | 83 | 0.027 |
| Cc1cc2nccc(=O)n2nc1N1CCc2ncc(Nc3c(F)cncc3F)cc2C1 [Compound 2-154, 7-(3-((3,5-difluoropyridin-4-yl)amino)-7,8-dihydro-1,6-naphthyridin-6(5H)-yl)-8-methyl-4H-pyrimido[1,2-b]pyridazin-4-one] | 90 | 0.041 |
| Cc1cc(Nc2cnc3c(c2)CN(c2nn4c(=O)ccnc4cc2C)CC3)c(F)cn1 [Compound 2-155, 7-(3-((5-fluoro-2-methylpyridin-4-yl)amino)-7,8-dihydro-1,6-naphthyridin-6(5H)-yl)-8-methyl-4H-pyrimido[1,2-b]pyridazin-4-one] | 94 | 0.021 |
| Cc1cc2nc(C)c(F)c(=O)n2nc1N1CCc2ncc(Nc3ccncc3F)cc2C1 [Compound 2-156, 3-fluoro-7-(3-((3-fluoropyridin-4-yl)amino)-7,8-dihydro-1,6-naphthyridin-6(5H)-yl)-2,8-dimethyl-4H-pyrimido[1,2-b]pyridazin-4-one] | 97 | 0.064 |
| Cc1cc2ncc(Cl)c(=O)n2nc1N1CCc2ncc(Nc3ccncc3F)cc2C1 [Compound 2-157, 3-chloro-7-(3-((3-fluoropyridin-4-yl)amino)-7,8-dihydro-1,6-naphthyridin-6(5H)-yl)-8-methyl-4H-pyrimido[1,2-b]pyridazin-4-one] | 90 | 0.003 |
| Cc1cc2nc(C)c(C)c(=O)n2nc1N1CCc2ncc(Nc3ccncc3F)cc2C1 [Compound 2-158, 7-(3-((3-fluoropyridin-4-yl)amino)-7,8-dihydro-1,6-naphthyridin-6(5H)-yl)-2,3,8-trimethyl-4H-pyrimido[1,2-b]pyridazin-4-one] | 91 | 0.001 |
| Cc1cc2nc(C(F)F)cc(=O)n2nc1N1CCc2ncc(Nc3ccncc3F)cc2C1 [Compound 2-159, 2-(difluoromethyl)-7-(3-((3-fluoropyridin-4-yl)amino)-7,8-dihydro-1,6-naphthyridin-6(5H)-yl)-8-methyl-4H-pyrimido[1,2-b]pyridazin-4-one] | 94 | 0.001 |
| Cc1cc2nc(C(F)(F)F)cc(=O)n2nc1N1CCc2ncc(Nc3ccncc3F)cc2C1 [Compound 2-160, 7-(3-((3-fluoropyridin-4-yl)amino)-7,8-dihydro-1,6-naphthyridin-6(5H)-yl)-8-methyl-2-(trifluoromethyl)-4H-pyrimido[1,2-b]pyridazin-4-one] | 92 | 0.008 |
| Cc1cc2nc(C)c(Cl)c(=O)n2nc1N1CCc2ncc(Nc3ccncc3F)cc2C1 [Compound 2-161, 3-chloro-7-(3-((3-fluoropyridin-4-yl)amino)-7,8-dihydro-1,6-naphthyridin-6(5H)-yl)-2,8-dimethyl-4H-pyrimido[1,2-b]pyridazin-4-one] | 95 | 0.001 |
| [2H]C1([2H])Cc2ncc(Nc3cc(C)ncc3F)cc2C([2H])([2H])N1c1nn2c(=O)ccnc2cc1C [Compound 2-162, 7-(3-((5-fluoro-2-methylpyridin-4-yl)amino)-7,8-dihydro-1,6-naphthyridin-6(5H)-yl-5,5,7,7-d4)-8-methyl-4H-pyrimido[1,2-b]pyridazin-4-one] | 96 | 0.016 |
| [2H]C1([2H])Cc2ncc(Nc3cccnc3C)cc2C([2H])([2H])N1c1nn2c(=O)ccnc2cc1C [Compound 2-163, 8-methyl-7-(3-((2-methylpyridin-3-yl)amino)-7,8-dihydro-1,6-naphthyridin-6(5H)-yl-5,5,7,7-d4)-4H-pyrimido[1,2-b]pyridazin-4-one] | 79 | 0.388 |
| [2H]C1([2H])Cc2ncc(Nc3ccncc3F)cc2C([2H])([2H])N1c1nn2c(=O)ccnc2cc1C [Compound 2-164, 7-(3-((3-fluoropyridin-4-yl)amino)-7,8-dihydro-1,6-naphthyridin-6(5H)-yl-5,5,7,7-d4)-8-methyl-4H-pyrimido[1,2-b]pyridazin-4-one] | 94 | 0.007 |
| [2H]C1([2H])Cc2ncc(Nc3ccncc3C)cc2C([2H])([2H])N1c1nn2c(=O)ccnc2cc1C [Compound 2-165, 8-methyl-7-(3-((3-methylpyridin-4-yl)amino)-7,8-dihydro-1,6-naphthyridin-6(5H)-yl-5,5,7,7-d4)-4H-pyrimido[1,2-b]pyridazin-4-one] | 66 | 0.127 |
| [2H]C1([2H])Cc2ncc(Nc3ccccc3F)cc2C([2H])([2H])N1c1nn2c(=O)ccnc2cc1C [Compound 2-166, 7-(3-((2-fluorophenyl)amino)-7,8-dihydro-1,6-naphthyridin-6(5H)-yl-5,5,7,7-d4)-8-methyl-4H-pyrimido[1,2-b]pyridazin-4-one] | 84 | 0.002 |
| Cc1cc2nccc(=O)n2nc1N1CCc2ncc(Oc3ccccc3F)cc2C1 [Compound 3-1, 7-(3-(2-fluorophenoxy)-7,8-dihydro-1,6-naphthyridin-6(5H)-yl)-8-methyl-4H-pyrimido[1,2-b]pyridazin-4-one] | 75 | 0.04 |
| Cc1cc(=O)n2nc(N3CCc4ncc(Oc5ccccc5F)cc4C3)c(C)cc2n1 [Compound 3-2, 7-(3-(2-fluorophenoxy)-7,8-dihydro-1,6-naphthyridin-6(5H)-yl)-2,8-dimethyl-4H-pyrimido[1,2-b]pyridazin-4-one] | 80 | 0.055 |
| Cc1c(N2CCc3ncc(Oc4ccccc4F)cc3C2)nn2c(=O)ccnc2c1C [Compound 3-3, 7-(3-(2-Fluorophenoxy)-7,8-dihydro-1,6-naphthyridin-6(5H)-yl)-8,9-dimethyl-4H-pyrimido[1,2-b]pyridazin-4-one] | 96 | 0.029 |
| Cc1c(N2CCc3ncc(OCCN4CCOC4=O)cc3C2)nn2c(=O)ccnc2c1C [Compound 3-4, 3-(2-((6-(8,9-Dimethyl-4-oxo-4H-pyrimido[1,2-b]pyridazin-7-yl)-5,6,7,8-tetrahydro-1,6-naphthyridin-3-yl)oxy)ethyl)oxazolidin-2-one] | 54 | 1.06 |
